“And” between values parts separate entries of the source, which are not always exact repeats. Identical values can stand only once.
Tested on: E. coli strain W3110
Assay: Synergy assays: Biolog chemical sensitivity panels with Group IB metal, coefficient of drug interaction (CDI) from relative growth
Assay type: cell-based
Conditions: for CDI (coefficient of drug interaction), copper mixed with biocide: Copper (mM) section; for CDI (coefficient of drug interaction), gold + biocide: Gold (μM)
[1] = Gold section of Table 5, first of three gold concentrations (μM, value not given), biocide concentration 2 of 4
[2] = Gold section of Table 5, first of three gold concentrations (μM, value not given), biocide concentration 3 of 4
[3] = Gold section of Table 5, first of three gold concentrations (μM, value not given), biocide concentration 4 of 4
[4] = Gold section of Table 5, second of three gold concentrations (μM, value not given), biocide concentration 1 of 4
[5] = Gold section of Table 5, second of three gold concentrations (μM, value not given), biocide concentration 2 of 4
[6] = Gold section of Table 5, second of three gold concentrations (μM, value not given), biocide concentration 3 of 4
[7] = Gold section of Table 5, second of three gold concentrations (μM, value not given), biocide concentration 4 of 4
[8] = Gold section of Table 5, third of three gold concentrations (μM, value not given), biocide concentration 1 of 4
[9] = Gold section of Table 5, third of three gold concentrations (μM, value not given), biocide concentration 2 of 4
[10] = Gold section of Table 5, third of three gold concentrations (μM, value not given), biocide concentration 3 of 4
[11] = Gold section of Table 5, third of three gold concentrations (μM, value not given), biocide concentration 4 of 4
[12] = Silver 0.5 μM, biocide concentration 1 of 4
[13] = Silver 0.5 μM, biocide concentration 2 of 4
[14] = Silver 0.5 μM, biocide concentration 3 of 4
[15] = Silver 0.5 μM, biocide concentration 4 of 4
[16] = Silver 1.0 μM, biocide concentration 1 of 4
[17] = Silver 1.0 μM, biocide concentration 2 of 4
[18] = Silver 1.0 μM, biocide concentration 3 of 4
[19] = Silver 1.0 μM, biocide concentration 4 of 4
[20] = Silver 5.0 μM, biocide concentration 1 of 4
[21] = Silver 5.0 μM, biocide concentration 2 of 4
[22] = Silver 5.0 μM, biocide concentration 3 of 4
[23] = Silver 5.0 μM, biocide concentration 4 of 4
[24] = Copper (mM), 1st of 3 copper concentrations (head line not shown), biocide concentration 4 of 4, E. coli
[25] = Copper (mM), 2nd of 3 copper concentrations (head line not shown), biocide concentration 4 of 4, E. coli
[26] = Copper (mM), 3rd of 3 copper concentrations (head line not shown), biocide concentration 4 of 4, E. coli
[27] = first of 3 gold concentrations, biocide concentration 4 of 4
[28] = second of 3 gold concentrations, biocide concentration 4 of 4
[29] = third of 3 gold concentrations, biocide concentration 4 of 4
[30] = Copper (mM), 1st of 3 copper concentrations (head line not shown), biocide concentration 1 of 4, E. coli
[31] = Copper (mM), 1st of 3 copper concentrations (head line not shown), biocide concentration 3 of 4, E. coli
[32] = Copper (mM), 2nd of 3 copper concentrations (head line not shown), biocide concentration 1 of 4, E. coli
[33] = Copper (mM), 2nd of 3 copper concentrations (head line not shown), biocide concentration 3 of 4, E. coli
[34] = Copper (mM), 3rd of 3 copper concentrations (head line not shown), biocide concentration 1 of 4, E. coli
[35] = Copper (mM), 3rd of 3 copper concentrations (head line not shown), biocide concentration 3 of 4, E. coli

Row | Compound | CDI (coefficient of drug interaction) [1] | CDI (coefficient of drug interaction) [2] | CDI (coefficient of drug interaction) [3] | CDI (coefficient of drug interaction) [4] | CDI (coefficient of drug interaction) [5] | CDI (coefficient of drug interaction) [6] | CDI (coefficient of drug interaction) [7] | CDI (coefficient of drug interaction) [8] | CDI (coefficient of drug interaction) [9] | CDI [12] | CDI [14] | CDI [15] | CDI [16] | CDI [18] | CDI [19] | CDI [22] | CDI [23] | CDI (coefficient of drug interaction) [24] | CDI (coefficient of drug interaction) [25] | CDI (coefficient of drug interaction) [26] | further results
1 | CN[C@H]1C[C@@H](N)[C@H](O)[C@@H](O[C@@H]2O[C@H](CO)[C@H](O)[C@@H]3OC4(O[C@H]23)O[C@H]([C@@H](N)CO)[C@H](O)[C@H](O)[C@H]4O)[C@@H]1O (stereo partly drawn) [hygromycin B] | 0.82 | Tox | Tox | 0.96 | 1.13 | Tox | Tox | 0.97 | 1.27 | 1.26 | Tox | Tox | 0.63 | Tox | Tox | Tox | Tox | – | – | – | CDI (coefficient of drug interaction), copper mixed with biocide (1st of 3 copper concentrations (value not shown), 1st of four biocide concentrations): 1.19; CDI (coefficient of drug interaction), copper mixed with biocide (1st of 3 copper concentrations (value not shown), 3rd of four biocide concentrations): 0.89; CDI (coefficient of drug interaction), copper mixed with biocide (1st of 3 copper concentrations (value not shown), 4th of four biocide concentrations): 0.61; CDI (coefficient of drug interaction), copper mixed with biocide (2nd of 3 copper concentrations (value not shown), 1st of four biocide concentrations): 0.80; CDI (coefficient of drug interaction), copper mixed with biocide (2nd of 3 copper concentrations (value not shown), 2nd of four biocide concentrations): 0.81; CDI (coefficient of drug interaction), copper mixed with biocide (2nd of 3 copper concentrations (value not shown), 3rd of four biocide concentrations): 1.02; CDI (coefficient of drug interaction), copper mixed with biocide (2nd of 3 copper concentrations (value not shown), 4th of four biocide concentrations): Tox; CDI (coefficient of drug interaction), copper mixed with biocide (3rd of 3 copper concentrations (value not shown), 1st of four biocide concentrations): 0.91; CDI (coefficient of drug interaction), copper mixed with biocide (3rd of 3 copper concentrations (value not shown), 2nd of four biocide concentrations): 0.79; CDI (coefficient of drug interaction), copper mixed with biocide (3rd of 3 copper concentrations (value not shown), 3rd of four biocide concentrations): 0.77; CDI (coefficient of drug interaction), copper mixed with biocide (3rd of 3 copper concentrations (value not shown), 4th of four biocide concentrations): 0.94; CDI (coefficient of drug interaction) [10]: Tox; CDI (coefficient of drug interaction) [11]: Tox; CDI [13]: 2.06; CDI [17]: 1.47; CDI [20]: 0.03; CDI [21]: 0.37
2 | CCCCCCCC(=O)[O-].[Na+] [sodium caprylate] | – | – | – | – | – | – | – | – | – | – | Tox | Tox | – | Tox | Tox | Tox | Tox | Tox | Tox | Tox | CDI (coefficient of drug interaction), gold + biocide (first of 3 gold concentrations, biocide concentration 3 of 4): Tox; CDI (coefficient of drug interaction), gold + biocide [27]: Tox; CDI (coefficient of drug interaction), gold + biocide (second of 3 gold concentrations, biocide concentration 3 of 4): Tox; CDI (coefficient of drug interaction), gold + biocide [28]: Tox; CDI (coefficient of drug interaction), gold + biocide (third of 3 gold concentrations, biocide concentration 3 of 4): Tox; CDI (coefficient of drug interaction), gold + biocide [29]: Tox
3 | CN(CC[C@H](N)CC(=O)N[C@H]1C=C[C@H](n2ccc(N)nc2=O)O[C@@H]1C(=O)O)C(=N)N [blasticidin S] | 0.95 | 0.97 | Tox | 1.06 | 1.08 | 1.11 | Tox | 1.09 | 1.06 | 1.04 | 0.92 | Tox | 1.01 | Tox | Tox | Tox | Tox | Tox | Tox | Tox | CDI (coefficient of drug interaction) [30]: 1.05; CDI (coefficient of drug interaction) (Copper (mM), 1st of 3 copper concentrations (head line not shown), biocide concentration 2 of 4, E. coli): 1.14; CDI (coefficient of drug interaction) [31]: 0.95; CDI (coefficient of drug interaction) [32]: 0.90; CDI (coefficient of drug interaction) (Copper (mM), 2nd of 3 copper concentrations (head line not shown), biocide concentration 2 of 4, E. coli): 0.96; CDI (coefficient of drug interaction) [33]: Tox; CDI (coefficient of drug interaction) [34]: 0.71; CDI (coefficient of drug interaction) (Copper (mM), 3rd of 3 copper concentrations (head line not shown), biocide concentration 2 of 4, E. coli): 0.65; CDI (coefficient of drug interaction) [35]: 0.49; CDI (coefficient of drug interaction) (Gold section of Table 5, first of three gold concentrations (μM, value not given), biocide concentration 1 of 4): 1.05; CDI (coefficient of drug interaction) [10]: 1.11; CDI (coefficient of drug interaction) [11]: Tox; CDI [13]: 0.90; CDI [17]: 1.02; CDI [20]: 1.52; CDI [21]: 1.40
4 | polymyxin B | – | – | – | – | – | – | – | – | – | 1.37 and 0.79 | – | Tox | 1.23 and 0.85 | – | Tox | – | Tox | Tox | Tox | Tox | CDI (coefficient of drug interaction) [30]: 0.90; CDI (coefficient of drug interaction) [31]: Tox; CDI (coefficient of drug interaction) [32]: 0.97 and 0.75; CDI (coefficient of drug interaction) [33]: Tox; CDI (coefficient of drug interaction) [34]: 0.82 and 0.56; CDI (coefficient of drug interaction) [35]: Tox; CDI (coefficient of drug interaction), gold + biocide (first of 3 gold concentrations, biocide concentration 1 of 4): 1.07 and 0.97; CDI (coefficient of drug interaction), gold + biocide [27]: Tox; CDI (coefficient of drug interaction), gold + biocide (second of 3 gold concentrations, biocide concentration 1 of 4): 1.10 and 0.99; CDI (coefficient of drug interaction), gold + biocide [28]: Tox; CDI (coefficient of drug interaction), gold + biocide (third of 3 gold concentrations, biocide concentration 1 of 4): 1.00 and 0.92; CDI (coefficient of drug interaction), gold + biocide [29]: Tox

— US11382328B2, “Rapid drug discovery methods for pathogen inactivation” (priority 2019, dated 2022)
